Consider 12 compounds from patent EP1296995B1, “3'-PRODRUGS OF 2'-DEOXY-BETA-L-NUCLEOSIDES” (priority 2000, dated 2001).

The nature of series [1]: physchem. The protocol: To 1 mL of this solution, 1 mL of octanol-1 (B) saturated with 0.02 M phosphate buffer solution (A) was added. The resultant mixture was shaken and centrifuged; three samples from each phase was collected and analyzed by HPLC, as shown in Table 10. […]
The solution was then saturated with octanol-1 (B). To 1 mL of this solution, 1 mL of octanol-1 (B) saturated with 0.02 M phosphate buffer solution (A) was added. The resultant mixture was shaken and centrifuged; three samples from each phase was collected and analyzed by HPLC, as shown in Table 11. […]

Series [2] can be described thus: in vivo. The note with it: monkey, po.
A short description of series [3]: in vivo. On the set-up: species or system cynomologus monkeys (macaca fascicularis). The note with it: cynomolgus monkey. The text has this: The drug was quantitated in plasma and urine with a liquid chromatography-mass spectrometry (LC-MS) technique.
The nature of series [4]: Log P' study, MilliQ water / octanol-1. It is filed as physicochemical. The note with it: for P' (B/A'): MilliQ water pH 6.5 (A') / octanol-1 (B), Study 1 and Study 2.
A short description of series [5]: in vivo. The note with it: rat. The protocol:
Clinical observations were documented once daily. Body weights were documented before dosing on Days 1, 8, 15, 22, and 28 and before necropsy on Day 29. Food consumption was documented weekly. Blood samples for hematology and serum chemistries also were collected before necropsy on Day 29.
Toxicokinetics. An additional 54 animals (27 males and 27 females) had samples collected for pharmacokinetic analyses on Days 1 and 28. […] Analysis of the 500 mg/kg group is in progress.

The nature of series [6]: in vivo. The following applies: monkey. The text has this: […]. […] Clinical observations were documented daily. Blood samples for hematology and serum chemistries were collected and body weight measured before treatment on Days 1, 4, 7, 10, and 14, and before necropsy on Day 17. After completion of Day 17 evaluations, all animals were euthanized and a complete necropsy performed, including macroscopic examination and comprehensive tissue collection.

Series [7] can be described thus: in vivo. The note with it: monkey, po. The source holds these as a separate data set.
The nature of series [8]: Oral bioavailability of L-dC via dival-L-dC (HPLC). The note with it: cynomolgus monkey. The source says:
The drug was quantitated in plasma and in urine using HPLC analysis.

Series [9] is described as follows: in vitro. The note with it: human, plasma.
Series [10] is described as follows: in vivo. The note with it: rat, po.
Series [11] in a line: in vitro. The note with it: human, plasma. This is another data set of the same source.
A short description of series [12]: Stability study in buffers at various pH. In kind it is physicochemical.
Series [13] is described as follows: physchem. The following applies: water.
The test system of the next series is HBV. The experiment in a line: Antiviral activity against HBV in 2.2.15 cells (reduction of HBV DNA). The note with it: 2.2.15 cells.
The conditions of series [14]: monkey, in vivo.
For a further series, the system named is HepG2 cells. The experiment in a line: in vitro. The source says:
(§1) These studies included analysis of lactic acid production, mtDNA content and determination of changes in morphology (e.g., loss of cristae, matrix dissolution and swelling, and lipid droplet formation) of mitochondrial ultrastructure.

The nature of series [15]: in vitro. The following applies: human, hepg2 cells.
Source text: as §1

For series [16], the system named is Monkey Primary Hepatocytes. Description: Intracellular metabolism of L-dC in monkey primary hepatocytes. The following applies: 10 µM L-dC, 24 hours, n=1.
In a further series the test system is Rats Primary Hepatocytes. The experiment in a line: Intracellular metabolism of L-dC in rat primary hepatocytes. The note with it: 10 µM L-dC, 24 hours.
In series [17] the target is virion-associated DNA polymerase of WHV. Description: Endogenous polymerase assay, virion-associated DNA polymerase. In kind it is biochemical.
The conditions of series [18]: rhesus monkey, in vivo, po.
For series [19] the following is noted: monkey, in vivo. The source holds these as a separate data set.
The mark [20] stands for this setting: 0.02 m phosphate buffer, pH 7.2.

SMILES strings stand for the structures. Counter-ions that a name gives are not always drawn. Like-named read-outs stand apart in the source and are kept apart here.

What is called logD is lipophilicity at a set pH, counting ionised and neutral species. As a reminder, the bioavailability is the share of a dose that reaches the circulation, judged against a reference dose that is usually intravenous. `CC(=O)OC[C@@H]1O[C@H](n2ccc(N)nc2=O)C[C@H]1OC(C)=O` [3'5'-diacetyl-L-dC, 3',5'-Di-O-acetyl-2'-deoxy-β-L-cytidine]: the logD in the series “physchem [1]” (setting [20]) was -0.74. This compound came in with a bioavailability in “in vivo [2]” of 23 ± 6.5%.
What is called NOAEL is the highest tested level that showed no adverse finding. As a reminder, the half-life is the time in which the quantity being followed falls by half. A word on the fraction unbound: it is free concentration divided by total concentration. As for `CC(C)[C@H](N)C(=O)OC[C@@H]1O[C@H](n2ccc(N)nc2=O)C[C@H]1OC(=O)[C@@H](N)C(C)C` [3'5'-dival-L-dC, 3,5'-L-Valine ester of 2'-deoxy-β-L-cytidine hydrochloride], in “in vivo [3]” (iv), the “share of drug excreted in the urine (total recovered dose)” value (“share … (total recovered dose)” for short) is “approximately 0.15%”. Further, in “in vivo [3]” (po), the “share … (total recovered dose)” value is recorded as “No dival-L-dC was detected”. The logD in the series “physchem [1]” (setting [20]) is -0.86. This compound also had a degraded in “physchem [1]” (octanol-1, pH 7.2) of 14%. The degraded in “physchem [1]” (phosphate buffer, pH 7.2) amounted to 50%. Besides, the “P' (B/A')” value in series [4] was 1.80 x10^-3. In series [4] (listed as L-dC-3',5'-divalinyl ester hydrochloride, hydrochloride), the “P' (B/A')” value is 1.77 x 10^-3. The “conversion to the monoesters or L-dC during log P' experiment” value in [4] (aqueous or organic phases, MilliQ water) was “No conversion”. For the same compound, the NOAEL at […] in “in vivo [5]” (po) is less than 500 mg/kg. For the same compound, in the series “in vivo [6]”, the “RBC, HGB and HCT lower at Day 17 compared to Day 1” value is listed as 15-27%; the “decrease of BUN at Day 17 compared to Day 1” value is given as approximately 43%. Besides, the NOAEL in the series “in vivo [6]” (po) was found to be 2000 mg/kg. In the series “in vivo [7]”, this compound had an NOAEL at 600 h of less than 500 mg/kg. In series [8] (urine, 10 mg/kg), this compound gave a dose excreted at 8 h of approximately 26% and a dose excreted at 72 h of 31%. In addition, in “in vivo [2]”, the Fa is approximately 73% and the bioavailability stood at 72.7 ± 22%. The same compound had a half-life in “in vitro [9]” of approximately 0.65 h. The compound also showed an NOAEL at 360 h in “in vivo [10]” of 2000 mg/kg. The fraction unbound in the series “in vitro [11]” is 0.867.
A word on the solubility: it is the concentration that dissolves in the medium under given conditions. As to `CC(C)[C@H](N)C(=O)O[C@@H]1C[C@@H](n2ccc(N)nc2=O)O[C@H]1CO` [3'-val-L-dC, 3'-valinyl ester of β-L-deoxyribocytosine], in “physchem [1]” (0.02 m phosphate buffer, pH 7.2, log P (octanol/water)), the logD was -1.53. Moreover, the half-life in series [12] (0.2m tris-hcl, pH 7.4) was 7 h; in series [12] (pH 1.2 (135 mM KCl-HCl buffer solution), read-out: half-life), more than 48 h. In addition, the bioavailability in “in vivo [2]” was 85.1 ± 24.5%. Besides, in “physchem [13]”, the solubility was more than 408 mg/mL.
Regarding `Nc1ccn([C@@H]2CS[C@H](CO)O2)c(=O)n1` [3TC, (-)-enantiomer of cis-2-hydroxymethyl-5-(cytosin-1-yl)-1,3-oxathiolane, reference compound], the “S.I. (CC50/EC90)” value with HBV is reported as > 5,000.
What is called Tmax is the time at which the peak concentration occurs. In the case of `CC(C)[C@H](N)C(=O)OC[C@@H]1O[C@H](n2ccc(N)nc2=O)C[C@H]1O` [5'-val-L-dC, 5'-L-valine ester of 2'-deoxy-β-L-cytidine hydrochloride], the “share … (total recovered dose)” value in “in vivo [3]” (iv) is recorded as approximately 3.7%; in the series “in vivo [3]” (po), approximately 0.2%. This compound also registered a concentration at 2 h in the series “in vivo [3]” (iv, 10 mg/kg) of 80 nM. Moreover, the “AUClast higher for females than males” value in the series “in vivo [5]” is on record as 25-50%. For the same compound, in the series “in vivo [5]”, the “AUClast higher on Day 28 vs. Day 1” value is 30-62%. Moreover, the Tmax in “in vivo [5]” (po) lay within 1 to 2 h. For the same compound, the “Tlast (median)” value in series [14] worked out at 10 h. Also, in series [14] (po), the “median Tmax” value amounted to 1 h. The same compound gave a bioavailability in “in vivo [2]” of 39 ± 11.4%.
For the compound `Nc1ccn([C@H]2C[C@H](O)[C@@H](CO)O2)c(=O)n1` [D-dC, D-Deoxycytidine], in the series “physchem [1]” (setting [20]), the “P(B/A)” value is recorded as 0.039 and the “log P (octanol/water)” value is -1.41.
In the case of `O=c1[nH]c(=O)n([C@@H]2O[C@H](CO)[C@@H](O)[C@@H]2F)cc1I` [FIAU, fialuridine], in the series with HepG2 cells (Conc. (µM): L-dC 10, FIAU 10, ZDV 50, ddC 1), the “Lipid Droplet Formation” value was “positive”. For the same compound, the “Mitochondrial Morphology” value with HepG2 cells (Conc. (µM): L-dC 10, FIAU 10, ZDV 50, ddC 1, electron microscopy) is recorded as “abnormal”. Moreover, the “increase of lactic acid production compared to vehicle control” value with HepG2 cells (HepG2 cells) is recorded as 100%. In addition, in the series “in vitro [15]”, the activity is 203% and the activity at 336 h was 86%.
The term IC50 denotes the midpoint of a concentration-inhibition curve. For `Nc1ccn([C@@H]2C[C@@H](O)[C@H](COP(=O)(O)OP(=O)(O)OP(=O)(O)O)O2)c(=O)n1` [L-dC-TP], the intracellular metabolite level was found to be 39.3 µM in series [16] and 14.2 ± 3.1 µM in the series on Rats Primary Hepatocytes. Besides, the IC50 in series [17] (endogenous polymerase assay, read-out: IC50 viral DNA pol (WHV DNA polymerase)) came out at 1.82 ± 0.23 µM.
For `O=c1ccn([C@@H]2C[C@@H](O)[C@H](CO)O2)c(=O)[nH]1` [L-dU, β-L-2'-deoxyuridine], the “share … (total recovered dose)” value in “in vivo [3]” (iv) is “approximately 2.5%”; in the series “in vivo [3]” (po) it was “approximately 2.5%”; in [18], 23%; in series [19] (po) it was 29%. Also, the concentration in the series “in vivo [3]” (iv, 10 mg/kg) is 220 to 880 nM; in the series “in vivo [3]” (po, 10 mg/kg, 8 h), 390 nM. For the same compound, the “share of the dose recovered in the urine” value in [19] (iv, 10 mg/kg) is recorded as 4.0%. In series [8] (in vivo), the “share of drug excreted in the urine (recovered dose)” value was “approximately 10%”.
On to `O=c1ccn([C@@H]2C[C@@H](O)[C@H](COP(=O)(O)OP(=O)(O)OP(=O)(O)O)O2)c(=O)[nH]1` [L-dU-TP, β-L-2'-deoxyuridine 5'-triphosphate], for which the intracellular metabolite level in series [16] came out at 21.9 µM; in the series with Rats Primary Hepatocytes, 46.9 ± 5.2 µM. In addition, the IC50 in [17] (target as printed, read-out: IC50 in vitro against hepatitis B virus DNA polymerase) came to 5.26 µM.
For the compound `CC(=O)Nc1ccn([C@@H]2C[C@@H](O)[C@H](CO)O2)c(=O)n1` [N^4-acetyl-L-dC, N^4-Acetyl-2'-deoxy-β-L-cytidine], in series [12] (pH 1.2, read-out: half-life), the half-life worked out at 0.833 h.
For orientation: inhibition means the drop in the measured response relative to a control, in per cent. Consider `Nc1ccn([C@H]2CC[C@@H](CO)O2)c(=O)n1` [ddC, zalcitabine], for which, in the series with HepG2 cells, the “Lipid Droplet Formation” value is listed as “negative” and the “Mitochondrial Morphology” value is “abnormal”. In the series “in vitro [15]”, the activity stood at 95 ± 4.4%, the activity at 336 h was 13% and the inhibition at 336 h was 87%.
